Assays:
Assay in all cases: relative viability (nuclei count vs DMSO), 5 days (fraction); higher = more cells survive
PC-14 = tested on: PC-14
Procedure, shortened: (§1)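 For relative viability, nuclei counts in treated wells were divided by those in vehicle wells. Lung cancer cell lines had been pin-tool dosed in 1536-well plates the day after seeding and cultured for 5 days, then fixed and stained in one step (final 0.05% Triton X-100, 1% formaldehyde, 1 ug/ml Hoechst) and imaged at 4×. Doses were one drug alone or a fixed anchor-drug dose plus five library-drug doses (not always all listed) in √10 steps, and values are duplicate-plate medians.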

NCI-H661 = tested on: NCI-H661
Procedure, shortened: as §1

NCI-H23 = tested on: NCI-H23
Procedure, shortened: as §1

ChaGo-K-1 = tested on: ChaGo-K-1
Procedure, shortened: as §1

NCI-H2347 = tested on: NCI-H2347
Procedure, shortened: as §1

H3255 = tested on: H3255
Procedure, shortened: as §1

NCI-H2405 = tested on: NCI-H2405
Procedure, shortened: as §1

LCLC-97TM1 = tested on: LCLC-97TM1
Procedure, shortened: as §1

NCI-H650 = tested on: NCI-H650
Procedure, shortened: as §1

EPLC-272H = tested on: EPLC-272H
Procedure, shortened: as §1

NCI-H2126 = tested on: NCI-H2126
Procedure, shortened: as §1

LC-2-ad = tested on: LC-2-ad
Procedure, shortened: as §1

What does the source list for `NC(=O)Nc1cc(-c2cccc(F)c2)sc1C(=O)N[C@H]1CCCNC1` [AZD7762] + C[C@@H](Oc1cc(-c2cnn(C3CCNCC3)c2)cnc1N)c1c(Cl)ccc(F)c1Cl [Crizotinib] (partner 1 µM)?
relative viability (PC-14; first compound 0.1 µM): 0.922; relative viability (PC-14; first compound 0.3162 µM): 0.81; relative viability (PC-14; first compound 1 µM): 0.41; relative viability (NCI-H661; first compound 0.01 µM): 0.952; relative viability (NCI-H661; first compound 0.03162 µM): 0.87; relative viability (NCI-H661; first compound 0.1 µM): 1.08; relative viability (NCI-H661; first compound 0.3162 µM): 0.99; relative viability (NCI-H661; first compound 1 µM): 0.886; relative viability (NCI-H23; first compound 0.01 µM): 0.687; relative viability (NCI-H23; first compound 0.03162 µM): 0.517; relative viability (NCI-H23; first compound 0.1 µM): 0.542; relative viability (NCI-H23; first compound 0.3162 µM): 0.323; relative viability (NCI-H23; first compound 1 µM): 0.203; relative viability (ChaGo-K-1; first compound 0.01 µM): 1.21; relative viability (ChaGo-K-1; first compound 0.03162 µM): 1.04; relative viability (ChaGo-K-1; first compound 0.1 µM): 1.14; relative viability (ChaGo-K-1; first compound 0.3162 µM): 1.07; relative viability (ChaGo-K-1; first compound 1 µM): 0.64; relative viability (NCI-H2347; first compound 0.01 µM): 1.01; relative viability (NCI-H2347; first compound 0.03162 µM): 0.918; relative viability (NCI-H2347; first compound 0.1 µM): 0.734; relative viability (NCI-H2347; first compound 0.3162 µM): 0.928; relative viability (NCI-H2347; first compound 1 µM): 0.67; relative viability (H3255; first compound 0.01 µM): 0.997; relative viability (H3255; first compound 0.03162 µM): 0.88; relative viability (H3255; first compound 0.1 µM): 0.891; relative viability (H3255; first compound 0.3162 µM): 0.867; relative viability (H3255; first compound 1 µM): 0.42; relative viability (NCI-H2405; first compound 0.01 µM): 0.94; relative viability (NCI-H2405; first compound 0.03162 µM): 0.802; relative viability (NCI-H2405; first compound 0.1 µM): 0.841; relative viability (NCI-H2405; first compound 0.3162 µM): 0.819; relative viability (NCI-H2405; first compound 1 µM): 0.398; relative viability (LCLC-97TM1; first compound 0.01 µM): 0.385; relative viability (LCLC-97TM1; first compound 0.03162 µM): 0.337; relative viability (LCLC-97TM1; first compound 0.1 µM): 0.317; relative viability (LCLC-97TM1; first compound 0.3162 µM): 0.448; relative viability (LCLC-97TM1; first compound 1 µM): 0.334; relative viability (NCI-H650; first compound 0.01 µM): 0.882; relative viability (NCI-H650; first compound 0.03162 µM): 0.594; relative viability (NCI-H650; first compound 0.1 µM): 0.714; relative viability (NCI-H650; first compound 0.3162 µM): 0.688; relative viability (NCI-H650; first compound 1 µM): 0.466; relative viability (EPLC-272H; first compound 0.01 µM): 0.895; relative viability (EPLC-272H; first compound 0.03162 µM): 1.11; relative viability (EPLC-272H; first compound 0.1 µM): 0.967; relative viability (EPLC-272H; first compound 0.3162 µM): 0.859; relative viability (EPLC-272H; first compound 1 µM): 0.75; relative viability (NCI-H2126; first compound 0.01 µM): 1.01; relative viability (NCI-H2126; first compound 0.03162 µM): 1.01; relative viability (NCI-H2126; first compound 0.1 µM): 1.12; relative viability (NCI-H2126; first compound 0.3162 µM): 1.04; relative viability (NCI-H2126; first compound 1 µM): 1.05; relative viability (LC-2-ad; first compound 0.01 µM): 0.551; relative viability (LC-2-ad; first compound 0.03162 µM): 0.483; relative viability (LC-2-ad; first compound 0.1 µM): 0.52; relative viability (LC-2-ad; first compound 0.3162 µM): 0.522; relative viability (LC-2-ad; first compound 1 µM): 0.295
